What was measured:
[1] = Inhibitory potency of compound against neutral (N-) SMase activity in bovine brain microsomes(Ms) at concentration of 400 uM; conditions: Microsome
[2] = Inhibitory potency of compound against neutral (N-) SMase activity in Bacillus cereus at concentration of 400 uM
[3] = Inhibitory potency of compound against neutral (N-) SMase activity in bovine liver microsomes(Ms) at concentration of 400 uM; conditions: Microsome
[4] = tested on: Sphingomyelin phosphodiesterase 1 (acid sphingomyelinase) (Bos taurus); test: Inhibitory potency of compound against acidic (A-) SMase activity in bovine brain lysosomes microsomes(Ms) at concentration of 400 uM; conditions: Microsome
Bos taurus = species on record: Bos taurus; test: Inhibitory potency of compound against ceramide synthase activity in bovine liver microsomes(Ms) at concentration of 400 uM; conditions: Microsome
Homo sapiens = species on record: Homo sapiens; test: Inhibitory concentration against […] induced IL1-beta production in human peripheral monocytes; type: functional

SMILES	inhibition [1] [%]	inhibition [2] [%]	inhibition [3] [%]	inhibition [4] [%]	inhibition (Bos taurus) [%]	IC50 (Homo sapiens) [nM]
CCCCCCCCCCCCCCCCCC(=O)N[C@H](C(O)c1ccccc1)C(O)C(F)(F)P(=O)(O)O (stereo partly specified)	50	0	15	80	0	
CC[C@@H](C)/C=C(\C)C[C@@H](C)C[C@@H](C)/C=C/C=C/C=C/C(=O)N[C@H](CO)C[C@@]1(O)C(=O)C=C[C@@H]2O[C@@H]21 [SCYPHOSTATIN]						100
